Measured values from PubChem BioAssay (NCI).
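Values below derive from 48-hour exposures of cells grown in 96-well plates, with endpoints linearly interpolated between the two concentrations bracketing the appropriate inhibition level. At the GI50, growth is halved. At the TGI there is no net growth.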

Assays:
Assay in all cases: NCI tumour cell line growth inhibition, 48 h
SNB-19 CNS = test system: SNB-19 CNS
SW-620 colon = test system: SW-620 colon
OVCAR-4 ovarian = test system: OVCAR-4 ovarian
OVCAR-5 ovarian = test system: OVCAR-5 ovarian
HCT-116 colon = test system: HCT-116 colon
HS 578T breast = test system: HS 578T breast
PC-3 prostate = test system: PC-3 prostate
HCC-2998 colon = test system: HCC-2998 colon
UACC-257 melanoma = test system: UACC-257 melanoma
TK-10 renal = test system: TK-10 renal
KM12 colon = test system: KM12 colon
NCI/ADR-RES ovarian = test system: NCI/ADR-RES ovarian
NCI-H23 lung = test system: NCI-H23 lung
M14 melanoma = test system: M14 melanoma
K-562 leukemia = test system: K-562 leukemia
NCI-H226 lung = test system: NCI-H226 lung
T-47D breast = test system: T-47D breast
DU-145 prostate = test system: DU-145 prostate
CAKI-1 renal = test system: CAKI-1 renal
HCT-15 colon = test system: HCT-15 colon
BT-549 breast = test system: BT-549 breast
HT29 colon = test system: HT29 colon
SF-268 CNS = test system: SF-268 CNS
SN12C renal = test system: SN12C renal
NCI-H522 lung = test system: NCI-H522 lung
SNB-75 CNS = test system: SNB-75 CNS
OVCAR-8 ovarian = test system: OVCAR-8 ovarian
CCRF-CEM leukemia = test system: CCRF-CEM leukemia
SK-MEL-28 melanoma = test system: SK-MEL-28 melanoma
SK-OV-3 ovarian = test system: SK-OV-3 ovarian
A498 renal = test system: A498 renal
NCI-H460 lung = test system: NCI-H460 lung
MDA-MB-231 breast = test system: MDA-MB-231 breast
OVCAR-3 ovarian = test system: OVCAR-3 ovarian
MCF7 breast = test system: MCF7 breast
SK-MEL-2 melanoma = test system: SK-MEL-2 melanoma
COLO 205 colon = test system: COLO 205 colon
A549 NSCLC = test system: A549 NSCLC
MOLT-4 leukemia = test system: MOLT-4 leukemia
LOX IMVI melanoma = test system: LOX IMVI melanoma
U251 CNS = test system: U251 CNS
UO-31 renal = test system: UO-31 renal
MDA-MB-435 = test system: MDA-MB-435
ACHN renal = test system: ACHN renal
786-0 renal = test system: 786-0 renal
HOP-92 NSCLC = test system: HOP-92 NSCLC
IGROV1 ovarian = test system: IGROV1 ovarian
UACC-62 melanoma = test system: UACC-62 melanoma
SK-MEL-5 melanoma = test system: SK-MEL-5 melanoma
RPMI-8226 leukemia = test system: RPMI-8226 leukemia
HOP-62 NSCLC = test system: HOP-62 NSCLC
EKVX NSCLC = test system: EKVX NSCLC
SF-295 CNS = test system: SF-295 CNS

COc1cc(/C=C/c2cc(/C=C/c3ccc(O)c(OC)c3)n(C(N)=O)n2)ccc1O
GI50 (SNB-19 CNS): 0.691 µM
GI50 (SW-620 colon): 0.398 µM
TGI (SW-620 colon): 1.82 µM
GI50 (OVCAR-4 ovarian): 0.57 µM
TGI (OVCAR-4 ovarian): 5.03 µM
GI50 (OVCAR-5 ovarian): 1.76 µM
TGI (OVCAR-5 ovarian): > 100 µM
GI50 (HCT-116 colon): 0.314 µM
TGI (HCT-116 colon): 1.11 µM
GI50 (HS 578T breast): 0.259 µM
TGI (HS 578T breast): 2.52 µM
GI50 (PC-3 prostate): 0.439 µM
TGI (PC-3 prostate): 2.31 µM
GI50 (HCC-2998 colon): 1.56 µM
TGI (HCC-2998 colon): 11.2 µM
GI50 (UACC-257 melanoma): 1.53 µM
TGI (UACC-257 melanoma): 9.03 µM
GI50 (TK-10 renal): 1.3 µM
TGI (TK-10 renal): 4.73 µM
GI50 (KM12 colon): 0.351 µM
TGI (KM12 colon): 1.86 µM
GI50 (NCI/ADR-RES ovarian): 0.435 µM
TGI (NCI/ADR-RES ovarian): 4.44 µM
GI50 (NCI-H23 lung): 0.647 µM
TGI (NCI-H23 lung): 3.53 µM
GI50 (M14 melanoma): 0.283 µM
TGI (M14 melanoma): 1.03 µM
GI50 (K-562 leukemia): 0.35 µM
TGI (K-562 leukemia): > 100 µM
GI50 (NCI-H226 lung): 1.38 µM
TGI (NCI-H226 lung): 4.4 µM
GI50 (T-47D breast): 0.507 µM
TGI (T-47D breast): 3.68 µM
GI50 (DU-145 prostate): 0.482 µM
TGI (DU-145 prostate): 1.63 µM
GI50 (CAKI-1 renal): 0.368 µM
TGI (CAKI-1 renal): 10 µM
GI50 (HCT-15 colon): 0.312 µM
TGI (HCT-15 colon): 2.01 µM
GI50 (BT-549 breast): 0.395 µM
TGI (BT-549 breast): 1.58 µM
GI50 (HT29 colon): 2.18 µM
TGI (HT29 colon): 5.28 µM
GI50 (SF-268 CNS): 0.439 µM
TGI (SF-268 CNS): 4.83 µM
GI50 (SN12C renal): 0.585 µM
TGI (SN12C renal): 5.94 µM
GI50 (NCI-H522 lung): 0.252 µM
TGI (NCI-H522 lung): 0.964 µM
GI50 (SNB-75 CNS): 0.311 µM
TGI (SNB-75 CNS): 1.26 µM
GI50 (OVCAR-8 ovarian): 0.543 µM
TGI (OVCAR-8 ovarian): 22.8 µM
GI50 (CCRF-CEM leukemia): 0.295 µM
TGI (CCRF-CEM leukemia): > 100 µM
GI50 (SK-MEL-28 melanoma): 0.609 µM
TGI (SK-MEL-28 melanoma): 3.26 µM
GI50 (SK-OV-3 ovarian): 0.392 µM
TGI (SK-OV-3 ovarian): 1.93 µM
GI50 (A498 renal): 1.12 µM
TGI (A498 renal): 3.48 µM
GI50 (NCI-H460 lung): 0.318 µM
TGI (NCI-H460 lung): 1.3 µM
GI50 (MDA-MB-231 breast): 0.655 µM
TGI (MDA-MB-231 breast): 12.8 µM
GI50 (OVCAR-3 ovarian): 0.427 µM
TGI (OVCAR-3 ovarian): 2.19 µM
GI50 (MCF7 breast): 0.314 µM
TGI (MCF7 breast): 1.45 µM
GI50 (SK-MEL-2 melanoma): 0.4 µM
TGI (SK-MEL-2 melanoma): 1.13 µM
GI50 (COLO 205 colon): 2.36 µM
TGI (COLO 205 colon): 6.03 µM
GI50 (A549 NSCLC): 0.491 µM
TGI (A549 NSCLC): 11.3 µM
GI50 (MOLT-4 leukemia): 0.365 µM
TGI (MOLT-4 leukemia): > 100 µM
GI50 (LOX IMVI melanoma): 0.493 µM
TGI (LOX IMVI melanoma): 2.75 µM
GI50 (U251 CNS): 0.526 µM
TGI (U251 CNS): 10.5 µM
GI50 (UO-31 renal): 0.37 µM
TGI (UO-31 renal): 1.69 µM
GI50 (MDA-MB-435): 0.102 µM
TGI (MDA-MB-435): 0.346 µM
GI50 (ACHN renal): 0.342 µM
TGI (ACHN renal): 10.2 µM
GI50 (786-0 renal): 0.372 µM
TGI (786-0 renal): 1.37 µM
GI50 (HOP-92 NSCLC): 0.861 µM
TGI (HOP-92 NSCLC): 4.4 µM

CC(=O)c1ccc(Nc2cc(-n3nnc4ccccc43)nc3ccccc23)cc1
GI50 (IGROV1 ovarian): 55.7 µM
TGI (IGROV1 ovarian): > 100 µM
GI50 (SNB-19 CNS): 47.6 µM
TGI (SNB-19 CNS): > 100 µM
GI50 (SW-620 colon): > 100 µM
TGI (SW-620 colon): > 100 µM
GI50 (OVCAR-4 ovarian): 10.7 µM
TGI (OVCAR-4 ovarian): 61.9 µM
GI50 (UACC-62 melanoma): 14.5 µM
TGI (UACC-62 melanoma): 62.8 µM
GI50 (OVCAR-5 ovarian): 26.2 µM
TGI (OVCAR-5 ovarian): > 100 µM
GI50 (HCT-116 colon): 32.9 µM
TGI (HCT-116 colon): > 100 µM
GI50 (HS 578T breast): 9.02 µM
TGI (HS 578T breast): 28.8 µM
GI50 (PC-3 prostate): 13.9 µM
TGI (PC-3 prostate): 72.4 µM
GI50 (SK-MEL-5 melanoma): 26.6 µM
TGI (SK-MEL-5 melanoma): 75.4 µM
GI50 (UACC-257 melanoma): 45 µM
TGI (UACC-257 melanoma): > 100 µM
GI50 (TK-10 renal): 9.46 µM
TGI (TK-10 renal): 24.3 µM
GI50 (KM12 colon): 4.16 µM
TGI (KM12 colon): 25.6 µM
GI50 (NCI/ADR-RES ovarian): 12 µM
TGI (NCI/ADR-RES ovarian): 46 µM
GI50 (RPMI-8226 leukemia): 2.5 µM
TGI (RPMI-8226 leukemia): 14 µM
GI50 (NCI-H23 lung): 15.8 µM
TGI (NCI-H23 lung): 72.6 µM
GI50 (M14 melanoma): 10.9 µM
TGI (M14 melanoma): 44.6 µM
GI50 (K-562 leukemia): > 100 µM
TGI (K-562 leukemia): > 100 µM
GI50 (NCI-H226 lung): 14.8 µM
TGI (NCI-H226 lung): 59.4 µM
GI50 (T-47D breast): 18.9 µM
TGI (T-47D breast): 87.1 µM
GI50 (DU-145 prostate): 14.6 µM
TGI (DU-145 prostate): 82 µM
GI50 (CAKI-1 renal): 13.2 µM
TGI (CAKI-1 renal): 35.2 µM
GI50 (HCT-15 colon): > 100 µM
TGI (HCT-15 colon): > 100 µM
GI50 (BT-549 breast): 16 µM
TGI (BT-549 breast): 66.2 µM
GI50 (HT29 colon): 12.9 µM
TGI (HT29 colon): > 100 µM
GI50 (HOP-62 NSCLC): 4.51 µM
TGI (HOP-62 NSCLC): 18.2 µM
GI50 (SF-268 CNS): 25.1 µM
TGI (SF-268 CNS): > 100 µM
GI50 (SN12C renal): 6.24 µM
TGI (SN12C renal): 35.4 µM
GI50 (NCI-H522 lung): 35.4 µM
TGI (NCI-H522 lung): > 100 µM
GI50 (SNB-75 CNS): 19.6 µM
TGI (SNB-75 CNS): 60.5 µM
GI50 (OVCAR-8 ovarian): 7.83 µM
TGI (OVCAR-8 ovarian): 43.4 µM
GI50 (CCRF-CEM leukemia): 5.18 µM
TGI (CCRF-CEM leukemia): > 100 µM
GI50 (SK-MEL-28 melanoma): 15.5 µM
TGI (SK-MEL-28 melanoma): > 100 µM
GI50 (SK-OV-3 ovarian): 20.5 µM
TGI (SK-OV-3 ovarian): 43.4 µM
GI50 (NCI-H460 lung): 29.1 µM
TGI (NCI-H460 lung): > 100 µM
GI50 (EKVX NSCLC): 9.41 µM
TGI (EKVX NSCLC): 67.4 µM
GI50 (MDA-MB-231 breast): 4.41 µM
TGI (MDA-MB-231 breast): 35.7 µM
GI50 (OVCAR-3 ovarian): 14 µM
TGI (OVCAR-3 ovarian): 37.5 µM
GI50 (MCF7 breast): 36.3 µM
TGI (MCF7 breast): > 100 µM
GI50 (SK-MEL-2 melanoma): 27.6 µM
TGI (SK-MEL-2 melanoma): > 100 µM
GI50 (COLO 205 colon): 30.6 µM
TGI (COLO 205 colon): > 100 µM
GI50 (A549 NSCLC): 32.3 µM
TGI (A549 NSCLC): > 100 µM
GI50 (LOX IMVI melanoma): 13.4 µM
TGI (LOX IMVI melanoma): > 100 µM
GI50 (U251 CNS): 14.4 µM
TGI (U251 CNS): 44.1 µM
GI50 (UO-31 renal): 23 µM
TGI (UO-31 renal): > 100 µM
GI50 (MDA-MB-435): 19.7 µM
TGI (MDA-MB-435): 94.6 µM
GI50 (SF-295 CNS): 4.96 µM
TGI (SF-295 CNS): 13.6 µM
GI50 (ACHN renal): 13.2 µM
TGI (ACHN renal): 26.9 µM
GI50 (786-0 renal): 11.9 µM
TGI (786-0 renal): 30.1 µM
